Experimental findings from US5580747A, “Non-radioactive enzyme assay” (Promega Corporation, priority 1994, dated 1996) are described below.

No end group written: not given here.

The test system of one assay is protein kinase C. The experiment in a line: Detection of small amounts of protein kinase C, agarose gel. It is filed as biochemical. As to conditions: 30 minutes at room temperature, UV light. On the procedure: Fifteen microliters of Promega Peptide 5 (SEQ ID NO:5) were incubated in protein kinase C reaction buffer (20 mM HEPES (pH 7.4), 1.3 mM CaCl2, 1 mM DTT, 10 mM MgCl2, 200 μg/mL phosphatidyl serine, 15 mM ATP), and 1 μg Protein Kinase C for 2 hours at room temperature in a final volume of 40 μl. The reaction was stopped by heating the reaction solution to 95° C. for ten minutes.
Five microliters of Promega Peptide 5 (SEQ ID NO:5) and 6 (SEQ ID NO:6) or 2.5 μl of Promega Peptide 4 (SEQ ID NO:4) were incubated with a solution containing 18 μl protein kinase C reaction buffer (described in Example 13) and decreasing amounts of protein kinase C, containing between 60 ng and 60 picograms (pg), for 30 minutes at room temperature. Reactions were stopped by heating the reaction mixtures to 95° C. for 10 minutes.
Referring to FIG. 11, the detection of phosphorylated peptide was observed under UV light, and detection limits noted. Six hundred picograms of protein kinase C could be detected by Promega Peptide 4 (SEQ ID NO:4), 3ng by Promega Protein 5 (SEQ ID NO:5), and 3 ng by Promega Protein 6 (SEQ ID NO:6).

In assay [1] the test system is Brevibacterium albidum culture supernate. As to the kind of experiment: Assays of proteases in crude media samples. The note with it: 90 minutes at 37° C. It is filed as biochemical. On the procedure: (§1) Samples of culture supernate from stationary phase cultures of Thermus aquaticus (T. aquaticus) and Brevibacterium albidum (B. albidum) were made by centrifugation of a stationary phase culture at 12,000×g for 2 minutes and transfer of the supernate to fresh tubes. Diluted stocks of Promega Peptides 3 (SEQ ID NO:3), 5 (SEQ ID NO:5) and 6 (SEQ ID NO:6) were made by dilution of the original stocks of these peptides with an equal volume of 50 mM ammonium bicarbonate, pH 7.8. In three independent tubes per peptide, 10 μL of these diluted stocks were incubated with either 10 μL water, 10 μL Thermus supernate, or 10 μL Brevibacterium supernate. The incubations were performed for 90 minutes at 37° C. The samples were then loaded in a 0.9% agarose gel made with 20 mM Tris-Cl pH 8.0. The gel was then electrophoresed at 120 V for 30 minutes, and was photographed under UV light on a transilluminator as described above.
(§2) Reference is made to FIG. 15, which is a photograph of the agarose gel used to analyze the peptide species produced in the digestion of Promega Peptides 3 (SEQ ID NO:3), 5 (SEQ ID NO:5), and 6 (SEQ ID NO:6) by supernates of cultures of T. aquaticus and B, albidum. The gel was photographed under UV light as described in Example 1 and the gel is oriented such that the end of the gel which was oriented towards the negative electrode is towards the top of the photograph.

Assay [2] relates to Thermus aquaticus culture supernate. The experiment in a line: Assays of proteases in crude media samples. The format is biochemical. As to conditions: 90 minutes at 37° C. On the procedure:
as §1, §2

In a further assay the target is T1, Modified Trypsin (Sus scrofa, UniProt P00761).
T1 construct: purchased Promega Corp., Madison, Wis
As to the kind of experiment: Assay of pure proteases using modified peptides, agarose gel. The format is biochemical. The note with it: 90 minutes at 37° C., 0.1 to 0.001 μg protease. On the procedure:
(§3) The proteases Modified Trypsin [sequencing grade] (Promega Corp., Madison, Wis.) and Endoprotease Lys C [sequencing grade] were dissolved in A buffer (50 mM ammonium bicarbonate, pH 7.8). These stocks were diluted with A buffer to produce stocks containing […] protease per 4 μl of liquid. Independent incubations of 4 μl of each of the different protease concentrations were performed with Promega Peptides 5 (SEQ ID NO:5), 6 (SEQ ID NO:6), 7 (SEQ ID NO:7) (5 μl of the stocks described above) in a 20 μl reaction mixture containing: 5 μl peptide; 4 μl protease; and 11 μl A buffer.
(§4) After 90 minutes at 37° C., the samples were loaded into a 0.8% agarose gel made in 20 mM Tris, pH 8.0. The samples were electrophoresed at 150 V. When the control peptide sample had migrated about 0.5 inch from the loading well, the gels were photographed on a transilluminator as described above.
(§5) Reference is made to FIG. 13, which is a photograph of the agarose gel used to analyze the peptide species produced in the digestion of Promega Peptide 6 (SEQ ID NO:6) by modified trypsin and Endoprotease Lys C. The gel was photographed under UV light as described in Example 1 and the gel is oriented such that the end of the gel which was oriented towards the negative electrode is towards the top of the photograph. The lanes are numbered from left to right. […]

The target of a further assay is T2, Endoprotease Lys C (Lysobacter enzymogenes, UniProt Q7M135).
T2 construct: purchased Promega Corp., Madison, Wis
The assay is described as above. The format is biochemical. The note with it: 90 minutes at 37° C., 0.1 to 0.001 μg protease. On the procedure: as §3, §4, §5

The subject of a further assay is alkaline phosphatase. The note with it: peptide phosphorylated by protein kinase C; pH 9.2, 37° C. for 45 minutes.

T1 sequence (P00761 9-231): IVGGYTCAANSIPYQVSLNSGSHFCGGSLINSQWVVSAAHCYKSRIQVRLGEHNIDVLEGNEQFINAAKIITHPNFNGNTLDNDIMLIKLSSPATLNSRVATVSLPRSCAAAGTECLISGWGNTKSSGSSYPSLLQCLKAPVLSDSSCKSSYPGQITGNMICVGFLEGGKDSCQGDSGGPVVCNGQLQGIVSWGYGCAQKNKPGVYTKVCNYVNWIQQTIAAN
T2 sequence (Q7M135 whole entry): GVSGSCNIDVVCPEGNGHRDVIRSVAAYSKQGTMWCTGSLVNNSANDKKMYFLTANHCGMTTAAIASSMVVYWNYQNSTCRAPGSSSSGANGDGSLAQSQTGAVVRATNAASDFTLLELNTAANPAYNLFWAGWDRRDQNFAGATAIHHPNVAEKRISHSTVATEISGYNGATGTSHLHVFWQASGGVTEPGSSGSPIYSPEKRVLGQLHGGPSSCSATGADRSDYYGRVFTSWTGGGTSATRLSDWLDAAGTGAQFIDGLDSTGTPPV
Experimental for alkaline phosphatase: Promega Peptide 6 (SEQ ID NO:6) was phosphorylated to provide a substrate for alkaline phosphatase in the following manner: 40 μl Promega Peptide 6 (SEQ ID NO:6) were incubated in a solution containing 20 mM HEPES (pH 7.4), 1.67 mM CaCl2, 1 mM dithiothreotol, 10 mM MgCl2, 100 μg/mL phosphatidylserine, 2 mM ATP, and 50 ng protein kinase C in a final volume of 100 μl at 37° C. for 1.5 hours. The reaction was stopped by incubating the mixture at 95° C. for 10 minutes.
After phosphorylation, 0.1M Tris (pH 9.5) was added to a final pH of 9.2. Fifteen microliters of this solution were mixed with between 0.08 to 200 pmoles of alkaline phosphatase in a final volume of 20 μl and incubated at 37° C. for 45 minutes. The reaction was stopped by freezing the mixtures in a dry ice/ethanol bath. Glycerol was added to a final concentration of 4%, and the samples were run on a 0.8% agarose gel at 75 V for 20 minutes.

With “Promega Peptide 6: Lissamine Rhodamine-tagged peptide *-P-L-S-R-T-L-S-V-A-A-K-K (SEQ ID NO:6) ({Lissamine Rhodamine}-PLSRTLSVAAKK)”, the “amount of protein kinase C that could be detected” value in the assay with protein kinase C is on record as 3 ng. In addition, the “proteolysis by B. albidum supernate” value in assay [1] was “proteolytic cleavage of the peptide had occurred”. In addition, the “proteolysis by T. aquaticus supernate” value in assay [2] is “proteolytic cleavage of the peptide had occurred”. In the assay with Modified Trypsin, the “digestion by Modified Trypsin” value was “fluorescent species with mobilities altered”. Further, the “digestion by Endoprotease Lys C” value with Endoprotease Lys C is on record as “fluorescent species with mobilities altered”. Moreover, the “amount of alkaline phosphatase at which dephosphorylation of the phosphorylated peptide could be seen” value in the assay with alkaline phosphatase amounted to 60 ng.
